According to patent US8343983B2, “Substituted pyrazolo-pyrimidine compounds” (ArQule, Inc., priority 2009, dated 2013):
Like-named read-outs stand apart in the source and are kept apart here.

Assays:
cancer cells = test: MTS assay: inhibition of cell growth (formazan absorbance at 492 nm after 72 hours with test compound); assay type: cell-based; conditions: inhibition class
Method in brief: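 DMEM with 1% FBS; cells seeded at 3000/well and grown 18 h at 37 °C, then exposed to compound for 72 h and to MTS/PMS for 4 h. IC50 is the concentration giving a 50% absorbance drop; grades are % inhibition bands.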

[1] = Homo sapiens, DLD-1 cells, read-out: DLD-1, MTS 72 hours at 10 uM
[2] = Homo sapiens, KATO III cells, read-out: KATO III, MTS 72 hours at 10 uM
[3] = Homo sapiens, MDA-MB-231 cells, read-out: MDA-MB-231, MTS 72 hours at 10 uM
[4] = Homo sapiens, NCI-H1299 cells, read-out: NCI-H1299, MTS 72 hours at 10 uM
[5] = Homo sapiens, PC-3 cells, read-out: PC-3, MTS 72 hours at 10 uM
[6] = PACA-2 cells, read-out: PACA-2, MTS 72 hours at 10 uM

## COc1ccc(CN2CCc3nn(Cc4ccccc4)c4nc(N5CCOCC5)nc2c34)cc1 [Compound 131, 4-(1-benzyl-5-(4-methoxybenzyl)-1,3,4,5-tetrahydro-1,2,5,6,8-pentaazaacenaphthylen-7-yl)morpholine]
other
  melting point: 118 to 120 °C

## COc1ccc(CN2CCc3n[nH]c4nc(N5CCOCC5)nc2c34)cc1 [Compound 110, 6-(4-methoxybenzyl)-4-morpholin-4-yl-2,6,7,8-tetrahydro-1,2,3,5,6-pentaazaacenaphthylene]
Cancer cells; [1]
  inhibition at 10 µM: < 50%
Cancer cells; [2]
  inhibition at 10 µM: < 50%
Cancer cells; [3]
  inhibition at 10 µM: < 50%
Cancer cells; [4]
  inhibition at 10 µM: < 50%
Cancer cells; [5]
  inhibition at 10 µM: < 50%
Cancer cells; [6]
  inhibition at 10 µM: < 50%

## c1ccc(CN2CCc3n[nH]c4nc(NCCCN5CCOCC5)nc2c34)cc1 [Compound 25, 6-benzyl-N-(3-morpholin-4-ylpropyl)-2,6,7,8-tetrahydro-1,2,3,5,6-pentaazaacenaphthylen-4-amine]
Cancer cells; [1]
  inhibition at 10 µM: < 50%
Cancer cells; [2]
  inhibition at 10 µM: < 50%
Cancer cells; [3]
  inhibition at 10 µM: < 50%
Cancer cells; [4]
  inhibition at 10 µM: < 50%
Cancer cells; [5]
  inhibition at 10 µM: < 50%
Cancer cells; [6]
  inhibition at 10 µM: < 50%

## COc1ccc(CN2CCN(c3nc4c5c(n[nH]c5n3)CCN4Cc3ccccc3)CC2)cc1 [Compound 24, 6-benzyl-4-[4-(4-methoxybenzyl)piperazin-1-yl]-2,6,7,8-tetrahydro-1,2,3,5,6-pentaazaacenaphthylene]
Cancer cells; [1]
  inhibition at 10 µM: < 50%
Cancer cells; [2]
  inhibition at 10 µM: < 50%
Cancer cells; [3]
  inhibition at 10 µM: < 50%
Cancer cells; [4]
  inhibition at 10 µM: < 50%
Cancer cells; [5]
  inhibition at 10 µM: < 50%
Cancer cells; [6]
  inhibition at 10 µM: < 50%

## CN(Cc1cccc2ccccc12)c1nc2c3c(n[nH]c3n1)CCN2Cc1ccccc1 [Compound 6, 6-benzyl-N-methyl-N-(1-naphthylmethyl)-2,6,7,8-tetrahydro-1,2,3,5,6-pentaazaacenaphthylen-4-amine]
Cancer cells; [1]
  inhibition at 10 µM: < 50%
Cancer cells; [2]
  inhibition at 10 µM: < 50%
Cancer cells; [3]
  inhibition at 10 µM: < 50%
Cancer cells; [4]
  inhibition at 10 µM: < 50%
Cancer cells; [5]
  inhibition at 10 µM: < 50%
Cancer cells; [6]
  inhibition at 10 µM: < 50%

## CN(C)CCN(C)c1nc2c3c(n[nH]c3n1)CCN2Cc1ccccc1 [Compound 23, N-(6-benzyl-2,6,7,8-tetrahydro-1,2,3,5,6-pentaazaacenaphthylen-4-yl)-N,N′,N′-trimethylethane-1,2-diamine]
Cancer cells; [1]
  inhibition at 10 µM: < 50%
Cancer cells; [2]
  inhibition at 10 µM: < 50%
Cancer cells; [3]
  inhibition at 10 µM: 50 to 79%
Cancer cells; [4]
  inhibition at 10 µM: < 50%
Cancer cells; [5]
  inhibition at 10 µM: > 79%
Cancer cells; [6]
  inhibition at 10 µM: < 50%

## COC(=O)Cn1nc2c3c(nc(SC)nc31)N(Cc1ccccc1)CC2 [Compound 172, methyl [6-benzyl-4-(methylsulfanyl)-7,8-dihydro-1,2,3,5,6-pentaazaacenaphthylen-2(6H)-yl]acetate]
Cancer cells; [1]
  inhibition at 10 µM: 50 to 79%
Cancer cells; [2]
  inhibition at 10 µM: < 50%
Cancer cells; [3]
  inhibition at 10 µM: < 50%
Cancer cells; [4]
  inhibition at 10 µM: < 50%
Cancer cells; [5]
  inhibition at 10 µM: > 79%
Cancer cells; [6]
  inhibition at 10 µM: > 79%

## Brc1ccc(CCNc2nc3c4c(n[nH]c4n2)CCN3Cc2ccccc2)cc1 [Compound 97, 6-benzyl-N-[2-(4-bromophenyl)ethyl]-2,6,7,8-tetrahydro-1,2,3,5,6-pentaazaacenaphthylen-4-amine]
Cancer cells; [1]
  inhibition at 10 µM: 50 to 79%
Cancer cells; [2]
  inhibition at 10 µM: < 50%
Cancer cells; [3]
  inhibition at 10 µM: < 50%
Cancer cells; [4]
  inhibition at 10 µM: 50 to 79%
Cancer cells; [5]
  inhibition at 10 µM: < 50%
Cancer cells; [6]
  inhibition at 10 µM: < 50%

## c1ccc(CN2CCc3n[nH]c4nc(N5CCc6ccccc6C5)nc2c34)cc1 [Compound 19, 6-benzyl-4-(3,4-dihydroisoquinolin-2(1H)-yl)-2,6,7,8-tetrahydro-1,2,3,5,6-pentaazaacenaphthylene]
Cancer cells; [1]
  inhibition at 10 µM: < 50%
Cancer cells; [2]
  inhibition at 10 µM: < 50%
Cancer cells; [3]
  inhibition at 10 µM: 50 to 79%
Cancer cells; [4]
  inhibition at 10 µM: < 50%
Cancer cells; [5]
  inhibition at 10 µM: 50 to 79%
Cancer cells; [6]
  inhibition at 10 µM: < 50%

## CN(C(=O)C1CN(Cc2ccccc2)c2nc(NCc3ccccc3)nc3[nH]nc1c23)C1CCCCC1 (stereo not shown) [Compound 239, 6-benzyl-4-(benzylamino)-N-cyclohexyl-N-methyl-2,6,7,8-tetrahydro-1,2,3,5,6-pentaazaacenaphthylene-8-carboxamide]
Cancer cells; [1]
  inhibition at 10 µM: < 50%
Cancer cells; [2]
  inhibition at 10 µM: < 50%
Cancer cells; [3]
  inhibition at 10 µM: < 50%
Cancer cells; [4]
  inhibition at 10 µM: < 50%
Cancer cells; [5]
  inhibition at 10 µM: < 50%
Cancer cells; [6]
  inhibition at 10 µM: < 50%

## O=C1CCCN1CCCNc1nc2c3c(n[nH]c3n1)CCN2Cc1ccccc1 [Compound 51, 1-{3-[(6-benzyl-2,6,7,8-tetrahydro-1,2,3,5,6-pentaazaacenaphthylen-4-yl)amino]propyl}pyrrolidin-2-one]
Cancer cells; [1]
  inhibition at 10 µM: < 50%
Cancer cells; [2]
  inhibition at 10 µM: < 50%
Cancer cells; [3]
  inhibition at 10 µM: < 50%
Cancer cells; [4]
  inhibition at 10 µM: < 50%
Cancer cells; [5]
  inhibition at 10 µM: < 50%
Cancer cells; [6]
  inhibition at 10 µM: < 50%

## Clc1ccccc1CCNc1nc2c3c(n[nH]c3n1)CCN2Cc1ccccc1 [Compound 35, 6-benzyl-N-[2-(2-chlorophenyl)ethyl]-2,6,7,8-tetrahydro-1,2,3,5,6-pentaazaacenaphthylen-4-amine]
Cancer cells; [1]
  inhibition at 10 µM: < 50%
Cancer cells; [2]
  inhibition at 10 µM: < 50%
Cancer cells; [3]
  inhibition at 10 µM: 50 to 79%
Cancer cells; [4]
  inhibition at 10 µM: < 50%
Cancer cells; [5]
  inhibition at 10 µM: < 50%
Cancer cells; [6]
  inhibition at 10 µM: < 50%

## c1ccc(CN2CCc3n[nH]c4nc(N5CCN(Cc6ccccn6)CC5)nc2c34)cc1 [Compound 29, 6-benzyl-4-[4-(pyridin-2-ylmethyl)piperazin-1-yl]-2,6,7,8-tetrahydro-1,2,3,5,6-pentaazaacenaphthylene]
Cancer cells; [1]
  inhibition at 10 µM: < 50%
Cancer cells; [2]
  inhibition at 10 µM: < 50%
Cancer cells; [3]
  inhibition at 10 µM: < 50%
Cancer cells; [4]
  inhibition at 10 µM: < 50%
Cancer cells; [5]
  inhibition at 10 µM: < 50%
Cancer cells; [6]
  inhibition at 10 µM: < 50%

## CN1CCCC1CCNc1nc2c3c(n[nH]c3n1)CCN2Cc1ccccc1 (stereo not shown) [Compound 41, 6-benzyl-N-[2-(1-methylpyrrolidin-2-yl)ethyl]-2,6,7,8-tetrahydro-1,2,3,5,6-pentaazaacenaphthylen-4-amine]
Cancer cells; [1]
  inhibition at 10 µM: < 50%
Cancer cells; [2]
  inhibition at 10 µM: < 50%
Cancer cells; [3]
  inhibition at 10 µM: 50 to 79%
Cancer cells; [4]
  inhibition at 10 µM: < 50%
Cancer cells; [5]
  inhibition at 10 µM: < 50%
Cancer cells; [6]
  inhibition at 10 µM: < 50%

## COc1ccc(CN2CCc3n[nH]c4nc(NCCc5c[nH]c6ccc(Cl)cc56)nc2c34)cc1 [Compound 115, N-[2-(5-chloro-1H-indol-3-yl)ethyl]-6-(4-methoxybenzyl)-2,6,7,8-tetrahydro-1,2,3,5,6-pentaazaacenaphthylen-4-amine]
Cancer cells; [1]
  inhibition at 10 µM: > 79%
Cancer cells; [2]
  inhibition at 10 µM: > 79%
Cancer cells; [3]
  inhibition at 10 µM: > 79%
Cancer cells; [4]
  inhibition at 10 µM: > 79%
Cancer cells; [5]
  inhibition at 10 µM: > 79%
Cancer cells; [6]
  inhibition at 10 µM: > 79%

## Cc1ccccc1CNC(=O)C1CN(Cc2ccccc2)c2nc(NCc3ccccc3)nc3[nH]nc1c23 (stereo not shown) [Compound 233, 6-benzyl-4-(benzylamino)-N-(2-methylbenzyl)-2,6,7,8-tetrahydro-1,2,3,5,6-pentaazaacenaphthylene-8-carboxamide]
Cancer cells; [1]
  inhibition at 10 µM: > 79%
Cancer cells; [2]
  inhibition at 10 µM: 50 to 79%
Cancer cells; [3]
  inhibition at 10 µM: > 79%
Cancer cells; [4]
  inhibition at 10 µM: > 79%
Cancer cells; [5]
  inhibition at 10 µM: > 79%
Cancer cells; [6]
  inhibition at 10 µM: < 50%

## c1ccc(N2CCc3n[nH]c4nc(NCCN5CCOCC5)nc2c34)cc1 [Compound 215, N-(2-morpholin-4-ylethyl)-6-phenyl-2,6,7,8-tetrahydro-1,2,3,5,6-pentaazaacenaphthylen-4-amine]
Cancer cells; [1]
  inhibition at 10 µM: < 50%
Cancer cells; [2]
  inhibition at 10 µM: < 50%
Cancer cells; [3]
  inhibition at 10 µM: < 50%
Cancer cells; [4]
  inhibition at 10 µM: < 50%
Cancer cells; [5]
  inhibition at 10 µM: < 50%
Cancer cells; [6]
  inhibition at 10 µM: < 50%

## COc1ccc(CN2CCCc3n[nH]c4nc(NCCN5CCOCC5)nc2c34)cc1 [Compound 249, 6-(4-methoxybenzyl)-N-(2-morpholin-4-ylethyl)-6,7,8,9-tetrahydro-2H-1,2,3,5,6-pentaazabenzo[cd]azulen-4-amine]
Cancer cells; [1]
  inhibition at 10 µM: < 50%
Cancer cells; [2]
  inhibition at 10 µM: < 50%
Cancer cells; [3]
  inhibition at 10 µM: < 50%
Cancer cells; [4]
  inhibition at 10 µM: < 50%
Cancer cells; [5]
  inhibition at 10 µM: < 50%
Cancer cells; [6]
  inhibition at 10 µM: < 50%

## COc1ccc(CN2CCCc3n[nH]c4nc(NC5CCN(C)CC5)nc2c34)cc1 [Compound 246, 6-(4-methoxybenzyl)-N-(1-methylpiperidin-4-yl)-6,7,8,9-tetrahydro-2H-1,2,3,5,6-pentaazabenzo[cd]azulen-4-amine]
Cancer cells; [1]
  inhibition at 10 µM: < 50%
Cancer cells; [2]
  inhibition at 10 µM: < 50%
Cancer cells; [3]
  inhibition at 10 µM: < 50%
Cancer cells; [4]
  inhibition at 10 µM: < 50%
Cancer cells; [5]
  inhibition at 10 µM: < 50%
Cancer cells; [6]
  inhibition at 10 µM: < 50%
